Source: publication PMC7259601 (PLoS ONE, 2020)
Where two headings read alike, the source gives them in different places.

Tests used:
Human recombinant IL-4I1 = molecular target: T1, Human recombinant IL-4I1 (Homo sapiens, UniProt Q96RQ9); experiment: IL4I1 inhibition assay; assay type: biochemical
T1 construct: purchased RD Systems 5684-AO-020
Procedure: Human recombinant IL-4I1 was purchased from RD Systems (Ref. 5684-AO-020). The biochemical activity was measured by its ability to oxidize phenylalanine (specific substrate for IL-4I1; Sigma, P2126) and liberate H2O2 was measured in a coupled horseradish peroxidase assay using Amplex Red reagent as a substrate, as described in the KDM1A assay. The IL4I1 assay buffer was 50 mM Sodium Phosphate pH 7.0. Inhibition of IL-4I1 was monitored during 30 min in the presence of KM phenylalanine peptide at the KMapp of IL-4I1.

[1] = test system: isolated Sprague-Dawley rats; experiment: Elevated Plus Maze, rat isolation rearing model; assay type: in vivo; conditions: 0.16 or 0.48 mg/kg/day in drinking water, approximately 1 month
Procedure: Sprague Dawley Rats: Right after the weaning (post natal day 21-23), 72 Sprague-Dawley male rats (Charles River, bred in the UAB Animal facility) were divided in two groups: Control (N = 18), maintained 3-4 animals per cage; Isolated (N = 54), 1 animal per cage ([…] 1291H Eurostandard type III with ECOPURE CHIPS 6 bedding material, Harlan). Animals were maintained at 21 ± 2 °C controlled temperature in a 12 hr light / dark cycle (lights on at 8:00 am) with ad libitum access to food (2014 TEKLAD, Harlan) and water. […] Control animals were treated with vehicle. The administration route was drinking water and the vehicle 1.8% 2-Hydroxypropyl-b-cyclodextrin. Drug concentration was adjusted weekly by body weight and water consumption. During the last week of treatment, all animals were tested in the EPM and, on a different day, in the RI test (N = 12 / group). […]
The EPM consisted of four arms at right angles to each other connected to a central square and maintained elevated 50 cm above the floor. […] The animal was placed facing a closed arm, and its movements were video-recorded for 5 min and analyzed by video-tracking using SMART® (v3.0, PanLab, SLU, Spain).
Elevated Plus Maze (EPM): Movements were video-recorded for 5 min and analyzed by video-tracking using SMART® (v3.0, PanLab, SLU, Spain).

[2] = test system: I2 (antagonist radioligand); experiment: CEREP Diversity Panel; assay type: binding; design: % inhibition: dose or concentration left out as unconfirmed
Procedure: (§1) […]. MAO-A inhibition at 10 μM was 37%, in line with internal data.

[3] = test system: M (non-selective) (antagonist radioligand); experiment: CEREP Diversity Panel; assay type: binding; design: % inhibition: dose or concentration left out as unconfirmed
Procedure: as §1

[4] = molecular target: T2, A1 (h) (antagonist radioligand) (Homo sapiens, UniProt P30542); experiment: CEREP Diversity Panel; assay type: binding
T2 construct: purchased CEREP (Eurofins Cerep)
Procedure: as §1

[5] = molecular target: T3, AT1 (h) (antagonist radioligand) (Homo sapiens, UniProt P30556); experiment: CEREP Diversity Panel; assay type: binding
T3 construct: purchased CEREP (Eurofins Cerep)
Procedure: as §1

[6] = molecular target: T4, AT2 (h) (agonist radioligand) (Homo sapiens, UniProt P50052); experiment: CEREP Diversity Panel; assay type: binding
T4 construct: purchased CEREP (Eurofins Cerep)
Procedure: as §1

[7] = molecular target: T5, CB2 (h) (agonist radioligand) (Homo sapiens, UniProt P34972); experiment: CEREP Diversity Panel; assay type: binding
T5 construct: purchased CEREP (Eurofins Cerep)
T5 sequence (P34972 whole entry): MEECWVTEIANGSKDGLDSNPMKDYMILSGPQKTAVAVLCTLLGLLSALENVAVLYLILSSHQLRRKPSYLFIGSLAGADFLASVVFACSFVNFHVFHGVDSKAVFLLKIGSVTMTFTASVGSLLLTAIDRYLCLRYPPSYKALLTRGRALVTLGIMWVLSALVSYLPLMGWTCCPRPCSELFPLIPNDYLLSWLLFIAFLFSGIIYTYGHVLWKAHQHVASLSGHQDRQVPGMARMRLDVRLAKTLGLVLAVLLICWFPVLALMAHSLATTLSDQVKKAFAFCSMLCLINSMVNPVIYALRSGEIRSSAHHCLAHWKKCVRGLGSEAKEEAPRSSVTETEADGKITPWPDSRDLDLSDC
Procedure: as §1

[8] = molecular target: T6, CCK1 (CCKA) (h) (agonist radioligand) (Homo sapiens, UniProt P32238); experiment: CEREP Diversity Panel; assay type: binding
T6 construct: purchased CEREP (Eurofins Cerep)
T6 sequence (P32238 whole entry): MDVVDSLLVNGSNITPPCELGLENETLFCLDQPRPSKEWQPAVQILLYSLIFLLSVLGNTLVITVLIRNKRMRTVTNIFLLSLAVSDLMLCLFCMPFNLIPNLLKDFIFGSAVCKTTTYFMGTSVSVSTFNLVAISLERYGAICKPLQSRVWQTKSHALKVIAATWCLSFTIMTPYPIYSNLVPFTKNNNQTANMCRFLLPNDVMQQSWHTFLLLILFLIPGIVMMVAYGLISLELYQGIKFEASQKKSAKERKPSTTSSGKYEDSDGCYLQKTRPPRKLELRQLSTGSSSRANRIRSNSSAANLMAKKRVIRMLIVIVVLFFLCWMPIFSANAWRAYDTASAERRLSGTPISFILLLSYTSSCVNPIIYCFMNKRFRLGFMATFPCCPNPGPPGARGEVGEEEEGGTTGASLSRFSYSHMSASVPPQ
Procedure: as §1

[9] = molecular target: T7, D4.4 (h) (antagonist radioligand) (Homo sapiens, UniProt P21917); experiment: CEREP Diversity Panel; assay type: binding
T7 construct: purchased CEREP (Eurofins Cerep)
Procedure: as §1

[10] = molecular target: T8, EP2 (h) (agonist radioligand) (Homo sapiens, UniProt P43116); experiment: CEREP Diversity Panel; assay type: binding
T8 construct: purchased CEREP (Eurofins Cerep)
T8 sequence (P43116 whole entry): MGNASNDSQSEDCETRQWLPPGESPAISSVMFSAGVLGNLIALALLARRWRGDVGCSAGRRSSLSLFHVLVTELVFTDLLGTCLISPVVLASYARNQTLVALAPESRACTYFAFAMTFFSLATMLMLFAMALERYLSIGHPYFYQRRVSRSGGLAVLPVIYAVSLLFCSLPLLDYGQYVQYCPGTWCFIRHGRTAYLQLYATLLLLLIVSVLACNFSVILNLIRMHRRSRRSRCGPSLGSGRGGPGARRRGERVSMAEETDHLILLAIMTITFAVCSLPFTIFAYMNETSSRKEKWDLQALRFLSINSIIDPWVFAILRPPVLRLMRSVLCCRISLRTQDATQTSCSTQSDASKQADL
Procedure: as §1

[11] = molecular target: T9, ETB (h) (agonist radioligand) (Homo sapiens, UniProt P24530); experiment: CEREP Diversity Panel; assay type: binding
T9 construct: purchased CEREP (Eurofins Cerep)
T9 sequence (P24530 27-442): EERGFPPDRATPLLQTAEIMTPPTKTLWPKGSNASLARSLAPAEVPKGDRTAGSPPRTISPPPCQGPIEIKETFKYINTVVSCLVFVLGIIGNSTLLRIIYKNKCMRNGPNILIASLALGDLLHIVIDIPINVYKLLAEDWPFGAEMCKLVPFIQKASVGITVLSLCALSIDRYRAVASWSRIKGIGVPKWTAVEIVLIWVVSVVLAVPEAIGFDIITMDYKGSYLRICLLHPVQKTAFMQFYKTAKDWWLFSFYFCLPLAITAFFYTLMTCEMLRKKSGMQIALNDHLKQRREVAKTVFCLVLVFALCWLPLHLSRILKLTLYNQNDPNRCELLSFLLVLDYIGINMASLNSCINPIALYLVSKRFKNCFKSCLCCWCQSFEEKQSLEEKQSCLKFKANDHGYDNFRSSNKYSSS
Procedure: as §1

[12] = molecular target: T10, GR (h) (agonist radioligand) (Homo sapiens, UniProt P04150); experiment: CEREP Diversity Panel; assay type: binding
T10 construct: purchased CEREP (Eurofins Cerep)
T10 sequence (P04150 whole entry): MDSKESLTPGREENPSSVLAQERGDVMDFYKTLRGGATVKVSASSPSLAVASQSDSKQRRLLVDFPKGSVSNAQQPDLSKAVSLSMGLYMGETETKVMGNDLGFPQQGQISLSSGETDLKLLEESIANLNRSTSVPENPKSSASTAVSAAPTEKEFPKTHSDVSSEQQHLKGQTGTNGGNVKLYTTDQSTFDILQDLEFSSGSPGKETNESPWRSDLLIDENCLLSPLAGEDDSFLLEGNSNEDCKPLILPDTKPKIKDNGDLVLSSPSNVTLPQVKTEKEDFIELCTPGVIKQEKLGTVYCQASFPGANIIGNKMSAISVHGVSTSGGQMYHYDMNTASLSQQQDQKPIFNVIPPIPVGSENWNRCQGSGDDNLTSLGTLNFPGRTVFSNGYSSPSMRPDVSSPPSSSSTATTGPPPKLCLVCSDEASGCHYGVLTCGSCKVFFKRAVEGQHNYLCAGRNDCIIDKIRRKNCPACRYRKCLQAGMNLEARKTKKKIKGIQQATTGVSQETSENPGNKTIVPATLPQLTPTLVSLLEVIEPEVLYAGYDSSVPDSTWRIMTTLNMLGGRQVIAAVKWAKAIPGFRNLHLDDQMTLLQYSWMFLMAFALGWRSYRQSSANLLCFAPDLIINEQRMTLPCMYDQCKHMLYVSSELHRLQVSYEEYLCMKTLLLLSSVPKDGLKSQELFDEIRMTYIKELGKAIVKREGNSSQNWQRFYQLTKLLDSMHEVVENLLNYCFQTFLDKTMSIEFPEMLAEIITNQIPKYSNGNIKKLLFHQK
Procedure: as §1

[13] = molecular target: T11, H3 (h) (agonist radioligand) (Homo sapiens, UniProt Q9Y5N1); experiment: CEREP Diversity Panel; assay type: binding
T11 construct: purchased CEREP (Eurofins Cerep)
Procedure: as §1

[14] = molecular target: T12, NK1 (h) (agonist radioligand) (Homo sapiens, UniProt P25103); experiment: CEREP Diversity Panel; assay type: binding
T12 construct: purchased CEREP (Eurofins Cerep)
Procedure: as §1

[15] = molecular target: T13, NK3 (h) (antagonist radioligand) (Homo sapiens, UniProt P29371); experiment: CEREP Diversity Panel; assay type: binding
T13 construct: purchased CEREP (Eurofins Cerep)
T13 sequence (P29371 whole entry): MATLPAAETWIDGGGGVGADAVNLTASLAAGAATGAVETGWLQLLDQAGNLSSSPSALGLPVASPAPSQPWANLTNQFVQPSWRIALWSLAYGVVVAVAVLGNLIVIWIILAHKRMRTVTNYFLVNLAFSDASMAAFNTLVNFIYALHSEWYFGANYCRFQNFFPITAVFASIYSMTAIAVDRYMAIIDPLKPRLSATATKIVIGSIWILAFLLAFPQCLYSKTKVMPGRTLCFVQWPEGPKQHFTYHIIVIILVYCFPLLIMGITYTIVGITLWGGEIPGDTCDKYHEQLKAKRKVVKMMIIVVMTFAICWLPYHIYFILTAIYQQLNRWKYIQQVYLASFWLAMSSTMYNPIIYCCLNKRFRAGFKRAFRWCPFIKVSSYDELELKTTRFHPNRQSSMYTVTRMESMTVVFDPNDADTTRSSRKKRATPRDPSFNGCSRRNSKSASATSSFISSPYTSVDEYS
Procedure: as §1

[16] = molecular target: T14, V1a (h) (agonist radioligand) (Homo sapiens, UniProt P37288); experiment: CEREP Diversity Panel; assay type: binding
T14 construct: purchased CEREP (Eurofins Cerep)
Procedure: as §1

[17] = molecular target: T15, V2 (h) (agonist radioligand) (Homo sapiens, UniProt P30518); experiment: CEREP Diversity Panel; assay type: binding
T15 construct: purchased CEREP (Eurofins Cerep)
T15 sequence (P30518 whole entry): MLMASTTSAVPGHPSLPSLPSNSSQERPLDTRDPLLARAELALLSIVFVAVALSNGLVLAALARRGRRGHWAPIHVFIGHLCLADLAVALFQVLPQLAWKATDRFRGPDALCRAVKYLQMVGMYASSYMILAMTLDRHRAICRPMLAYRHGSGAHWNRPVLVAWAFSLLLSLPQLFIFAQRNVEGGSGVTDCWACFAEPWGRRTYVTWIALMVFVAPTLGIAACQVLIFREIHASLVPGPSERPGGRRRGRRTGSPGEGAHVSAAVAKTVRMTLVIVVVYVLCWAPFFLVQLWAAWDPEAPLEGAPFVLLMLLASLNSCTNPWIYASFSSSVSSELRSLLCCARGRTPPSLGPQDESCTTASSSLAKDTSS
Procedure: as §1

[18] = molecular target: T16, beta 1 (h) (agonist radioligand) (Homo sapiens, UniProt P08588); experiment: CEREP Diversity Panel; assay type: binding
T16 construct: purchased CEREP (Eurofins Cerep)
T16 sequence (P08588 whole entry): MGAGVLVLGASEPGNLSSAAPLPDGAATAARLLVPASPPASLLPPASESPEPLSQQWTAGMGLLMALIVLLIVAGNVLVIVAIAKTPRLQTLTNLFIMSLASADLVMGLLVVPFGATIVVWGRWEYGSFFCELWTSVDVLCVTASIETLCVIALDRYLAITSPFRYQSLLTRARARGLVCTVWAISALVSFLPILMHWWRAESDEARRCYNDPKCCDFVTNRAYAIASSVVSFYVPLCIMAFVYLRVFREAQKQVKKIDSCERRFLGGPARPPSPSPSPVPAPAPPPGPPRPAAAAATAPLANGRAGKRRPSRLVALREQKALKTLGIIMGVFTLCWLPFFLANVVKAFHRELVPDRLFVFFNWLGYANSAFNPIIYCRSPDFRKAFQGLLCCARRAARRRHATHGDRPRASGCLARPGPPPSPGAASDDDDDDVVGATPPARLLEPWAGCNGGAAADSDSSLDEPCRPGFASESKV
Procedure: as §1

[19] = molecular target: T17, choline transporter (CHT1) (h) (antagonist radioligand) (Homo sapiens, UniProt Q9GZV3); experiment: CEREP Diversity Panel; assay type: binding
T17 construct: purchased CEREP (Eurofins Cerep)
T17 sequence (Q9GZV3 whole entry): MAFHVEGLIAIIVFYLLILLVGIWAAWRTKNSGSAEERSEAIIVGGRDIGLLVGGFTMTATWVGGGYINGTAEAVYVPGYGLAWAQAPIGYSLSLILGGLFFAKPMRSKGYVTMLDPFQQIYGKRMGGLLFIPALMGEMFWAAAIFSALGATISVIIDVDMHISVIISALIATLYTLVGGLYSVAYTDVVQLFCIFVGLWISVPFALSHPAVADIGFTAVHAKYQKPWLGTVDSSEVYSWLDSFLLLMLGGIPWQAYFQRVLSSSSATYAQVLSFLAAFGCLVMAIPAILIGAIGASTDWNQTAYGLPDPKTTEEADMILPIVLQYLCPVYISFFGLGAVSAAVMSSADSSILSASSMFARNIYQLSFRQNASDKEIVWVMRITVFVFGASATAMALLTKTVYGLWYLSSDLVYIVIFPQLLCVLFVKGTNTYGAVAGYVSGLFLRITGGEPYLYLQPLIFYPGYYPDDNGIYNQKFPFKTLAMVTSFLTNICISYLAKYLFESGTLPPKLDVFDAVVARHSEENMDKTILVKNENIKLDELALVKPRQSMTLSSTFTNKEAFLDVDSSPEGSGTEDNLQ
Procedure: as §1

[20] = molecular target: T18, norepinephrine transporter (h) (antagonist radioligand) (Homo sapiens, UniProt P23975); experiment: CEREP Diversity Panel; assay type: binding
T18 construct: purchased CEREP (Eurofins Cerep)
T18 sequence (P23975 whole entry): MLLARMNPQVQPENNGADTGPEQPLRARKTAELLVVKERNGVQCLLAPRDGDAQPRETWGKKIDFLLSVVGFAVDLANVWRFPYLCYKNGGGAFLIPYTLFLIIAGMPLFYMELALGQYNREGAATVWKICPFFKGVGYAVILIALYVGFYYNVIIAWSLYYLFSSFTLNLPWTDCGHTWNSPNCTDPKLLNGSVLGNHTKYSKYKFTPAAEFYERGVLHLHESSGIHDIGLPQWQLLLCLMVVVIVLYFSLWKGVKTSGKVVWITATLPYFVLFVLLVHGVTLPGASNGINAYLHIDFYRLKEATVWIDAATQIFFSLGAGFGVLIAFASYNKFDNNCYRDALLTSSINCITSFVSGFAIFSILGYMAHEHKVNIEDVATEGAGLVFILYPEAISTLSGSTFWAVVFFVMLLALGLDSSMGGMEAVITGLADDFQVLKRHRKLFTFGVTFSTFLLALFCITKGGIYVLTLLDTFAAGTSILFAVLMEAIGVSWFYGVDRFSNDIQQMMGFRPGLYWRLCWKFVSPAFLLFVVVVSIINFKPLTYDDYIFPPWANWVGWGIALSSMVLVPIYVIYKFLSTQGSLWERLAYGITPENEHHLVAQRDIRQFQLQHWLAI
Procedure: as §1

KDM1A = KDM1A (Homo sapiens, UniProt O60341); experiment: KDM1A inhibition assay (Amplex Red, dimethylH3K4 peptide); assay type: biochemical; design: purchased BPS Bioscience 50100

`Nc1nnc(CN[C@@H]2C[C@H]2c2ccc(OCc3ccccc3)cc2)o1` [ORY-2001, vafidemstat] was tested, and the inhibition at 10 µM (Human recombinant IL-4I1) was 29%, the “anxiety and locomotor activity in the EPM” value [1] was “did not produce any significant effect on anxiety or locomotor activity” and the “% inhibition” value [2] was 71%. The “I2 imidazoline receptor inhibition of ligand binding” value ([2]; 10 μM) was 71%, the “% inhibition” value [3] was 1% and the “muscarinic receptor antagonist (MRA) activity” value [3] was “not an MRA”. For the same compound, the inhibition at 10 µM [4] was 0%, the inhibition at 10 µM [5] was -2% and the inhibition at 10 µM [6] was -6%. The inhibition at 10 µM [7] was 14%, the inhibition at 10 µM [8] was -2% and the inhibition at 10 µM [9] was 9%. For the same compound, the inhibition at 10 µM [10] was 18%, the inhibition at 10 µM [11] was -8% and the inhibition at 10 µM [12] was -9%. The inhibition at 10 µM [13] was -1%, the inhibition at 10 µM [14] was 3% and the inhibition at 10 µM [15] was 2%. For the same compound, the inhibition at 10 µM [16] was 1%, the inhibition at 10 µM [17] was -12% and the inhibition at 10 µM [18] was 7%. For the same compound, the inhibition at 10 µM [19] was -2%, the inhibition at 10 µM [20] was 26% and the IC50 (KDM1A; mean IC50 KDM1A, mean ± SD, minimum 2 independent experiments) was 101 ± 40 nM. It also gave an IC50 (KDM1A; rKDM1A, N = 1, n = 2, read-out: IC50 KDM1A, representative dose-response curve) of 105 nM.
